Source: US20230225991A1, “COMPOUNDS FOR USE IN THE TREATMENT OF ACUTE INTERMITTENT PORPHYRIA” (VESTLANDETS INNOVASJONSSELSKAP AS, priority 2019, published 2023)
Entries after “also recorded” stand apart in the source; their conditions may differ.

What was measured:
[1] = target: T1, WT-HMBS (Homo sapiens, UniProt P08397); test: Enzymatic activity assay of recombinant HMBS, standard conditions; assay type: biochemical; details: 100 μM PBG at 37° C., 84 μM compound, 2% DMSO; relative to DMSO control
T1 construct: Full-length HMBS was cloned into pET-28a(+)-TEV vector and transformed into BL21 (DE3) cells for expression; 6xHis (N, cleaved yes); TEV protease cleavage site (N, cleaved yes); made in house; host or cells: E. coli BL21 (DE3)
T1 sequence (P08397 1-361): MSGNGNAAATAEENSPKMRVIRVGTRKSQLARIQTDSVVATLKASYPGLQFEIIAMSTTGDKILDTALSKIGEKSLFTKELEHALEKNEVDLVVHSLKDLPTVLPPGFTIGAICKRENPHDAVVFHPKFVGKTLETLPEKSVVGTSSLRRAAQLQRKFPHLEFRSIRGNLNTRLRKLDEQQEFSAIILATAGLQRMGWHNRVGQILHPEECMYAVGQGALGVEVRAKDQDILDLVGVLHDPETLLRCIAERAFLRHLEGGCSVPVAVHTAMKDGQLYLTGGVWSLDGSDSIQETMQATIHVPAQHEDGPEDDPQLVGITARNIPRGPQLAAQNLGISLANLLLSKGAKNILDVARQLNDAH
Experimental: The standard enzymatic activity of recombinant WT-HMBS was assayed at 37° C. as reported previously (Bustad et al., Bioscience reports, 2013; 33(4)). Compounds were added at a concentration of 84 μM. Absorbance of uroporphyrinogen I was determined at 405 nm. The enzyme activity in the presence of the compounds was normalized relative to DMSO-control (relative activity).
An enzymatic assay was performed to investigate the effect of compound BG-1 on the activity and conformational stability of HMBS. HMBS activity of the purified enzyme was measured in the absence and presence of compound BG-1 (at 84 μM) at standard conditions (37° C.) but also after pre-incubation at 70° C. for 20 min based on the high thermal stability of WT-HMBS.

[2] = system: Hmbs-deficient T1/T2−/− mice; test: Mouse trial T1/T2-A, phenobarbital-induced biochemical acute attack
[3] = target: T2, HMBS in HepG2 cells over-expressing HMBS (Homo sapiens, UniProt P08397); test: HMBS protein level in WT-HMBS stably transfected HepG2 cells (western immunoblot); assay type: cell-based; details: 0-168 μM compound, 2% DMSO, 24 h; quantitative western immunoblotting
T2 construct: expressed in transfected cells; host or cells: HepG2 (stably transfected, G418-selected)
T2 sequence (P08397 1-361): T1 sequence (P08397 1-361)
Experimental: The human hepatoma HepG2 cells were obtained from Leibniz-Institut DSMZ—Deutsche Sammlung von Mikroorganismen und Zellkulturen GmbH. Cells were maintained in RPMI 1640, GlutaMAX™ (Thermo Fisher Scientific) medium supplemented with 10% heat-inactivated fetal bovine serum and 1% penicillin-streptomycin (Thermo Fisher Scientific) in a humidified incubator with 5% CO2 at 37° C. HMBS cDNA was inserted into the pcDNA3.1(+) cloning vector (Thermo Fisher Scientific). The HepG2 cells were then transfected with the pcDNA3.1(+) vector containing HMBS using FuGENE®HD Transfection Reagent (Promega, Madison, Wis.) according to the manufacturer's recommendations. Stably transfected clones were selected for resistance to the neomycin analogue G418 (Thermo Fisher Scientific). WT-HMBS transfected HepG2 cells (2×10^6) were seeded and grown for 22 h before compounds were added to final concentrations of 0, 40, 84, 120 and 168 μM in 2% DMSO. Cells were harvested after 24 h and analyzed as described below. […]
Cell lysate samples (20 μg total protein) were separated by electrophoresis and subsequently transferred to a PVDF transfer membrane (Bio-Rad). […] Chemiluminescence of secondary Ab-HRP conjugates was elicited using Luminata™ Crescendo Western HRP Substrate (Merck Millipore, Burlington, Mass.), imaged with Gel Doc™ XR+ (Bio-Rad) and quantified using Image Lab software (Bio-Rad). […]

`O=Cc1cc(Cc2ccccc2Cl)cc([N+](=O)[O-])c1O` [BG-1] was tested, and the “Relative activity, standard” value [1] was 0.98 ± 0.06, the “Toxicity in treated mice” value ([2]; 10 mg/kg/day oral gavage, 12 days, behavior and organ appearances) was “No apparent toxicity; also recorded: No toxic effect was registered” and the “HMBS protein levels or activity in erythrocytes or liver” value ([2]; 10 mg/kg/day, 12 days, compared to non-treated Hmbs-deficient mice) was “did not cause any significant change”. The “Urinary levels of ALA” value ([2]; 10 mg/kg/day, day 12, compared to non-treated mice) was “slight decreasing tendency” and the “Relative amount of HMBS in HepG2 cells” value [3] was “increasing relative amount of HMBS with increasing concentration”.

In the case of `O=C(c1ccccc1)c1ccc(Cl)c([N+](=O)[O-])c1` [BG-2], the “Relative amount of HMBS in HepG2 cells” value [3] was “increased the HMBS protein levels similarly to BG-1”.
